# Results reported in patent US20140243292A1, “SUBSITUTED 2-(CHROMAN-6-YLOXYL)-THIAZOLES AND THEIR USE AS PHARMACEUTICALS” (Sanofi, priority 2011, published 2014).
# Where a name gives a salt, the structure may show the parent alone.
# Target: T1, human NCX1 (Homo sapiens, UniProt P32418)
# T1 construct: expressed in transfected cells
# Assay: NCX1 inhibition, reverse mode (Ca2+ influx into cells), FLIPR Fluo-4 assay
# Type: cell-based
# Conditions: inhibition of NCX1 in reverse mode (Ca2+ influx into cells); read-out: NCX1rv IC50
# Text: The sodium/calcium exchanger NCX1 can transport calcium ions and sodium ions through the cell membrane. The transport is an exchange of Ca^2+ and Na^+ in two directions depending on membrane potential and ion gradients. At the first direction, named “forward mode” or “calcium export mode”, Ca^2+ is transported out of the cell and Na^+ is transported into the cell. At the other direction, named “reverse mode” or “calcium import mode”, the transport directions are vice versa. The effect of the compounds of the invention on NCX1 was determined in CHO cells stably expressing human NCX1 (gene symbol SLC8A1; cf. WO 2009/115238). The assay is based on the monitoring of intracellular Ca^2+ concentrations using a calcium-sensitive fluorescence dye which is detected by means of a FLIPR device (Fluorimetric Imaging Plate Reader, Molecular Devices).
# The assay is based on the monitoring of intracellular Ca^2+ concentrations using the calcium-sensitive dye Fluo-4. CHO cells expressing NCX1 were loaded with the dye by means of the acetoxymethyl ester Fluo-4 AM (Invitrogen, F14202), which is cleaved intracellularly by esterase activity to yield the charged species of free Fluo-4. After an preincubation period with the test compound, Gramicidine (Sigma, G5002) was added. Gramicidine is an ionophor for Na^+ ions mediating an increase of intracellular Na^+ ions. Consequently, intracellular Na^+ ions are exchanged against extracellular Ca^2+ ions (Ca^2+ influx, reverse mode). The intracellular elevation of Ca^2+ ions was detected by measuring the fluorescence of Fluo-4 at a wavelength of 520 nm by a FLIPR device.
# Briefly, for the reverse mode transport assay 18000 cells per well were seeded into a 96 well microplate (Corning COSTAR 3904) and incubated overnight in culture medium (1× Nut Mix F12 (Ham) (Gibco, 21765-029); 10% (v/v) fetal calf serum (PAA Gold, A15-649); 450 μg/ml Geneticin (Gibco, 10131-027)). A total volume of 100 μl medium per well was used. For the preparation of the FLIPR assay, the culture medium was removed from the plates and 100 μl of dye solution (2 μM Fluo-4 AM; 0.02% (v/v) Pluronic F-127 (20%, Invitrogen, P3000MP); 0.1% (v/v) bovine albumin solution (30% (v/v), Sigma, A9205) in assay buffer (133.8 mM NaCl (Sigma, S5886); 4.7 mM KCl (Sigma, P3911); 1.25 mM MgCl2 (Merck, 1.05833.0250); 3.5 mM CaCl2 (Merck, 1.02083.0250); 5 mM glucose (Sigma, G7021); 10 mM Hepes (Sigma, H4034); 0.01% (v/v) Pluronic F-127 (5%, Sigma, P2443); 2.5 mM Probenecid (Maybridge, SB00915EB); pH 7.4)) were added into each well. The plates were incubated in the dark at room temperature for 80 min. After the incubation period, the dye solution was removed and the wells were washed with 100 μl of assay buffer. Then 80 μl of a solution of the test compound in assay buffer in different concentrations were added into the wells. The plates were incubated at 16° C. for 45 min. Meanwhile a 60 μM solution of Gramicidine in assay buffer (4° C.) was prepared and stored in the wells of a 96 well microplate (96 well microplate, polypropylene, U-shape (Greiner Bio-One, 650201)) at 4° C. until measurement was started. The fluorescence monitoring was performed at 240 measuring points with measurement intervals of 2 sec. After the fifth measuring point, 40 μl of the Gramicidine solution were added to each well of the assay plates to give a final Gramicidine concentration of 20 μM. For the determination of the IC50 values the minimal fluorescence value was subtracted from the maximal fluorescence value for all measuring points. The calculation of the IC50 values via the percentage inhibitions of Ca^2+ influx into cells (reverse mode) effected by the test compound was performed in Biost@t Speed 2.0.
row,IC50,Compound
1,300 nM,2-((S)-2-Phenyl-chroman-6-yloxy)-thiazole-5-carboxylic acid (3-amino-propyl)-amide [compound 289]
2,300 nM,CCn1cc(CNC(=O)c2cnc(Oc3ccc4c(c3)CCC(c3ccccc3)O4)s2)cn1 (centres unmarked) [compound 1]
3,400 nM,CCn1nccc1CNC(=O)c1cnc(Oc2ccc3c(c2)CCC(c2ccccc2)O3)s1 (centres unmarked) [compound 3]
4,300 nM,O=C(NCc1ccncc1)c1cnc(Oc2ccc3c(c2)CCC(c2ccccc2)O3)s1 (centres unmarked) [compound 4]
5,400 nM,Cn1nccc1CNC(=O)c1cnc(Oc2ccc3c(c2)CCC(c2ccccc2)O3)s1 (centres unmarked) [compound 5]
6,400 nM,CC(NC(=O)c1cnc(Oc2ccc3c(c2)CCC(c2ccccc2)O3)s1)c1ccncc1 (centres unmarked) [compound 6]
7,300 nM,Cc1ncsc1CCNC(=O)c1cnc(Oc2ccc3c(c2)CCC(c2ccccc2)O3)s1 (centres unmarked) [compound 7]
8,800 nM,Cc1c(C(C)NC(=O)c2cnc(Oc3ccc4c(c3)CCC(c3ccccc3)O4)s2)cnn1C (centres unmarked) [compound 8]
9,800 nM,Cc1cc(CNC(=O)c2cnc(Oc3ccc4c(c3)CCC(c3ccccc3)O4)s2)ccn1 (centres unmarked) [compound 9]
10,600 nM,COc1cc(CNC(=O)c2cnc(Oc3ccc4c(c3)CCC(c3ccccc3)O4)s2)ccn1 (centres unmarked) [compound 10]
11,400 nM,Nc1cc(CNC(=O)c2cnc(Oc3ccc4c(c3)CCC(c3ccccc3)O4)s2)ccn1 (centres unmarked) [compound 11]
12,200 nM,Nc1cc(CNC(=O)c2cnc(Oc3ccc4c(c3)CCC(c3cccc(F)c3)O4)s2)ccn1 (centres unmarked) [compound 12]
13,100 nM,"O=C(NCc1cnc(Oc2ccc3c(c2)CCC(c2ccccc2)O3)s1)c1cccnc1 (centres unmarked) [compound 15, hydrochloride]"
14,100 nM,"O=C(Cc1cccnc1)NCc1cnc(Oc2ccc3c(c2)CCC(c2ccccc2)O3)s1 (centres unmarked) [compound 16, hydrochloride]"
15,200 nM,"O=C(NCc1nnc2ccccn12)c1cnc(Oc2ccc3c(c2)CCC(c2cccc(F)c2)O3)s1 (centres unmarked) [compound 17, hydrochloride]"
16,100 nM,"O=C(Cc1ccccn1)NCc1cnc(Oc2ccc3c(c2)CCC(c2ccccc2)O3)s1 (centres unmarked) [compound 19, hydrochloride]"
17,100 nM,Cc1nccc(CNC(=O)c2cnc(Oc3ccc4c(c3)CCC(c3ccccc3)O4)s2)n1 (centres unmarked) [compound 21]
18,400 nM,CC[C@H](NC(=O)c1cnc(Oc2ccc3c(c2)CCC(c2ccccc2)O3)s1)c1ccc(OC)nc1 (some centres unmarked) [compound 22]
19,800 nM,Cc1nn(C)cc1C(C)NC(=O)c1cnc(Oc2ccc3c(c2)CCC(c2ccccc2)O3)s1 (centres unmarked) [compound 23]
20,100 nM,O=C(NCc1ccno1)c1cnc(Oc2ccc3c(c2)CCC(c2ccccc2)O3)s1 (centres unmarked) [compound 24]
21,400 nM,O=C(NCc1ccnc(N2CCCC2)c1)c1cnc(Oc2ccc3c(c2)CCC(c2ccccc2)O3)s1 (centres unmarked) [compound 25]
22,300 nM,CN(Cc1ccnc(N2CCCC2)c1)C(=O)c1cnc(Oc2ccc3c(c2)CCC(c2ccccc2)O3)s1 (centres unmarked) [compound 26]
23,300 nM,CC[C@@H](NC(=O)c1cnc(Oc2ccc3c(c2)CCC(c2ccccc2)O3)s1)c1ccc(OC)nc1 (some centres unmarked) [compound 27]
24,200 nM,O=C(NCc1ccnc(N2CCOCC2)c1)c1cnc(Oc2ccc3c(c2)CCC(c2ccccc2)O3)s1 (centres unmarked) [compound 28]
25,100 nM,CN(C)c1cc(CNC(=O)c2cnc(Oc3ccc4c(c3)CCC(c3ccccc3)O4)s2)ccn1 (centres unmarked) [compound 29]
26,300 nM,"O=C(NCc1ccncc1)c1sc(Oc2ccc3c(c2)CCC(c2ccccc2)O3)nc1C(F)(F)F (centres unmarked) [compound 30, hydrochloride]"

row,IC50,Compound
1,1000 nM,Cc1n[nH]c(C)c1C(C)NC(=O)c1cnc(Oc2ccc3c(c2)CCC(c2ccccc2)O3)s1 (centres unmarked) [compound 31]
2,200 nM,Cc1cc(C)nc(CNC(=O)c2cnc(Oc3ccc4c(c3)CCC(c3ccccc3)O4)s2)n1 (centres unmarked) [compound 33]
3,200 nM,Cc1noc(C)c1CCNC(=O)c1cnc(Oc2ccc3c(c2)CCC(c2ccccc2)O3)s1 (centres unmarked) [compound 34]
4,600 nM,O=C(NCc1nnc2ccccn12)c1cnc(Oc2ccc3c(c2)CCC(c2ccccc2)O3)s1 (centres unmarked) [compound 35]
5,100 nM,O=C(NCc1ccncc1)c1cnc(Oc2ccc3c(c2)CC[C@@H](c2ccccc2)O3)s1 [compound 36]
6,200 nM,O=C(NCc1ccncc1)c1cnc(Oc2ccc3c(c2)CC[C@H](c2ccccc2)O3)s1 [compound 37]
7,300 nM,Cc1noc(C)c1CCCNC(=O)c1cnc(Oc2ccc3c(c2)CCC(c2ccccc2)O3)s1 (centres unmarked) [compound 38]
8,400 nM,O=C(NCc1ccncc1Cl)c1cnc(Oc2ccc3c(c2)CCC(c2ccccc2)O3)s1 (centres unmarked) [compound 40]
9,5000 nM,O=C(NCc1cn2ccccc2n1)c1cnc(Oc2ccc3c(c2)CCC(c2ccccc2)O3)s1 (centres unmarked) [compound 41]
10,200 nM,O=C(NCc1ccnc(O)c1)c1cnc(Oc2ccc3c(c2)CCC(c2ccccc2)O3)s1 (centres unmarked) [compound 42]
11,300 nM,"O=C(Cc1ccncc1)NCc1cnc(Oc2ccc3c(c2)CCC(c2ccccc2)O3)s1 (centres unmarked) [compound 43, hydrochloride]"
12,200 nM,"O=C(NCc1cnc(Oc2ccc3c(c2)CCC(c2cccc(F)c2)O3)s1)c1cccnc1 (centres unmarked) [compound 44, hydrochloride]"
13,100 nM,"O=C(Cc1cccnc1)NCc1cnc(Oc2ccc3c(c2)CCC(c2cccc(F)c2)O3)s1 (centres unmarked) [compound 45, hydrochloride]"
14,200 nM,"O=C(Cc1ccncc1)NCc1cnc(Oc2ccc3c(c2)CCC(c2cccc(F)c2)O3)s1 (centres unmarked) [compound 46, hydrochloride]"
15,100 nM,"O=S(=O)(NCc1cnc(Oc2ccc3c(c2)CCC(c2ccccc2)O3)s1)c1cccnc1 (centres unmarked) [compound 47, hydrochloride]"
16,100 nM,O=C(NCc1cnc(Oc2ccc3c(c2)CCC(c2ccccc2)O3)s1)c1ccno1 (centres unmarked) [compound 48]
17,100 nM,O=C(NCc1ccno1)c1cnc(Oc2ccc3c(c2)CCC(c2cccc(F)c2)O3)s1 (centres unmarked) [compound 49]
18,200 nM,"Cn1cnc(S(=O)(=O)NCc2cnc(Oc3ccc4c(c3)CCC(c3ccccc3)O4)s2)c1 (centres unmarked) [compound 50, 1-Methyl-1H-imidazole-4-sulfonic acid [2-(2-phenyl-chroman-6-yloxy)-thiazol-5-ylmethyl]-amide hydrochloride]"
19,200 nM,Cc1c(CNC(=O)c2cnc(Oc3ccc4c(c3)CCC(c3cccc(F)c3)O4)s2)cnn1C (centres unmarked) [compound 51]
20,400 nM,C[C@H](NC(=O)c1cnc(Oc2ccc3c(c2)CCC(c2ccccc2)O3)s1)c1nc(C2CC2)cs1 (some centres unmarked) [compound 52]
21,700 nM,CC(C)c1csc([C@H](C)NC(=O)c2cnc(Oc3ccc4c(c3)CCC(c3ccccc3)O4)s2)n1 (some centres unmarked) [compound 53]
22,200 nM,C[C@H](NC(=O)c1cnc(Oc2ccc3c(c2)CCC(c2ccccc2)O3)s1)c1nccs1 (some centres unmarked) [compound 54]
23,1200 nM,"O=C(NCc1ccncc1)c1cnc(Oc2ccc3c(c2Cl)CCC(c2ccccc2)O3)s1 (centres unmarked) [compound 55, hydrochloride]"
24,200 nM,"Cc1nccc(CNC(=O)c2cnc(Oc3ccc4c(c3)CCC(c3cccc(F)c3)O4)s2)n1 (centres unmarked) [compound 56, hydrochloride]"
25,100 nM,"NCc1cnc(Oc2ccc3c(c2)CCC(c2ccccc2)O3)s1 (centres unmarked) [compound 57, C-[2-(2-Phenyl-chroman-6-yloxy)-thiazol-5-yl]-methylamine]"
26,100 nM,"O=C(NCc1ccncc1)c1cnc(Oc2ccc3c(c2)CCC(c2ccsc2)O3)s1 (centres unmarked) [compound 60, hydrochloride]"

row,Compound,IC50
1,"2-[2-(2,6-Dimethyl-phenyl)-chroman-6-yloxy]-thiazole-5-carboxylic acid [2-(2-oxo-imidazolidin-1-yl)-ethyl]-amide [compound 347]",1500 nM
